Reference: patent US20100298256A1, “ANTIVIRAL COMPOUNDS” (priority 2007, published 2010)

How the values were obtained:
[1] = test system: HCV replicon AVA5 (genotype 1b, subgenomic replicon); assay: HCV replication in cell culture, AVA5 replicon line (blot hybridization of HCV RNA); format: cell-based; settings: AVA5 cultures, daily treatment for three days, normalized to β-actin RNA
Experimental: (§1) Antiviral activity of the test compounds was assessed (Okuse et al., 2005, Antivir. Res. 65:23) in the stably HCV replicating line, AVA5 (genotype 1b, subgenomic, replicon, Blight et al., 2000, Sci. 290: 1972) and APC 103 ((genotype 1a, genomic replicon). (ODE) phosphodiester ribavirin prodrug were added to dividing cultures daily for three days. Cultures generally start the assay at 30-50% confluence and reach confluence during the last day of treatment. Intracellular HCV RNA levels and cytotoxicity (on 96 well plates) were used. A total of 12 untreated control cultures and triplicate cultures treated with α-interferon and 2′CmeC served as assay controls.
(§2) Triplicate cultures for HCV RNA levels were measured using a conventional blot hybridization method in which HCV RNA levels were normalized to the levels of β-actin RNA in each individual culture (Okuse et al., 2005, Antivir. Res. 65:23). Cytotoxicity was measured using an established neutral red dye uptake assay (Korba et al., 1992, Antivir. Res. 19:55, Okuse et al., Antivir. Res. 65:23). Test compounds were received as powders on dry ice and were dissolved in 100% tissue culture grade DMSO (Sigma, Inc.) at 10 mM. Aliquots of test compounds sufficient for one daily treatment were made in individual tubes and all material was stored at −20° C. […]

[2] = test system: AVA5 and APC103 cultures; assay: Cytotoxicity by neutral red dye uptake in the HCV replicon cultures; format: cell-based; settings: at the concentrations used for the antiviral analyses
Experimental: as §1, §2

[3] = in vivo; settings: male, CD-1, mouse, plasma
Experimental: (§4) Plasma samples were collected at pre-dose, 1, 3, 6, 12, 24, 48, and 72 hours post-dose for P.O. treatment group and at pre-dose, 0.25, 2, 6, 12, 24, 48, and 72 hours post-dose for I.V. treatment group. All samples were collected within ±2 minutes of the targeted time.
(§5) Phenolphthalein was used as an internal standard. […] The samples were mixed by vortexing for 5 minutes, and centrifuged at 15,000 rpm at 4° C. for 10 minutes. A 150-μL aliquot of the supernatant was transferred to a 96-well plate and 10 uL of supernatant sample was injected into the LC-MS/MS system for analysis. In each analytical batch, PK samples were run concurrently with calibration standards (blank, 0, 5, 10, 25, 50, 100, 150, 300, and 500 ng/mL), and low, mid, high, and 10-fold dilution QC samples (15, 250, 400, and 2000 ng/m L).
A 1/Y^2 weighting factor was used.

[4] = test system: HCV replicon APC103 (genotype 1a, genomic replicon); assay: HCV replication in cell culture, APC103 replicon line (blot hybridization of HCV RNA); format: cell-based; settings: APC103 cultures, daily treatment for three days, normalized to β-actin RNA
Experimental: as §1, §2

[5] = test system: influenza A; assay: microbe, parasite or virus in culture; settings: MDCK, read-out: IC50 (minimum inhibitory drug concentration which reduces the CPE by 50%)
[6] = test system: HepG2 cells; assay: CytoTox-ONE LDH release cytotoxicity assay, HepG2; format: cell-based
Experimental: (§3) CytoTox-ONE™ homogeneous membrane integrity assay kits (Promega) was used in the cytotoxicity studies. The assay measured the release of lactate dehyrodegenase (LDH) from cells with damaged membranes in a fluorometric, homogeneous format. […] The amount of fluorescence produced is proportional to the number of lysed cells. The cytotoxicity assessment assay was performed using a designed plate format […] for allocation of media, drug, cells, and virus in a 96 well plate. Six serially diluted concentrations of octadecyl-ethanediol-modified (ODE) phosphodiester Ribavirin prodrug was applied to the cells to derive the TC50 (toxic concentration of the drug decreasing the cell viability by 50%), TC90 (toxic concentration of the drug decreasing the cell viability by 90%) and TC95 (toxic concentration of the drug decreasing the cell viability by 95%) values.

[7] = CytoTox-ONE LDH release cytotoxicity assay, HepG2; format: cell-based; settings: human, HepG2 cells, read-out: TC50 (toxic concentration decreasing cell viability by 50%)
Experimental: as §3

[8] = test system: PBMC cells; assay: CytoTox-ONE LDH release cytotoxicity assay, PBMC; format: cell-based
Experimental: as §3

[9] = CytoTox-ONE LDH release cytotoxicity assay, PBMC; format: cell-based; settings: PBMC cells, read-out: TC50 (toxic concentration decreasing cell viability by 50%)
Experimental: as §3

[10] = in vitro; settings: dog
[11] = Pharmacokinetic study after single oral and intravenous administration in male CD-1 mice
Experimental: as §4, §5
A 1/Y^2 weighting factor was used.

[12] = test system: influenza A
[13] = test system: CEM cells; assay: CytoTox-ONE LDH release cytotoxicity assay, CEM; format: cell-based
Experimental: as §3

[14] = CytoTox-ONE LDH release cytotoxicity assay, CEM; format: cell-based; settings: human, CEM cells, read-out: TC50 (toxic concentration decreasing cell viability by 50%)
Experimental: as §3

CCCCCCCCCCCCCCCCCCOCCOP(=O)(O)OC[C@H]1O[C@@H](n2cnc(C(N)=O)n2)[C@H](O)[C@@H]1O [(ODE) phosphodiester ribavirin prodrug, 1-(5-O-{hydroxy[2-(octadecyloxy)ethoxy]phosphoryl}-beta-D-ribofuranosyl)-1H-1,2,4-triazole-3-carboxamide]
intracellular HCV RNA levels [1]: selective reductions in intracellular HCV RNA levels | toxicity (significant = greater than 50% depression of the dye uptake levels observed in untreated cells) [2]: No significant toxicity | AUC(0-inf) ([3]; iv, 5 mg/kg): 2660 ng·h/mL | AUC(0-t) ([3]; iv, 5 mg/kg): 2640 ng·h/mL | Cmax ([3]; iv, 5 mg/kg): 1960 ng/mL | Tmax ([3]; iv, 5 mg/kg): 0.25 h | clearance ([3]; iv, 5 mg/kg): 31.3 mL/min/kg | half-life ([3]; iv, 5 mg/kg): 67.8 min | bioavailability ([3]; oral, 30 mg/kg): 10.7% | AUC(0-inf) ([3]; po, 30 mg/kg): 1700 ng·h/mL | AUC(0-t) ([3]; po, 30 mg/kg): 1660 ng·h/mL | Cmax ([3]; po, 30 mg/kg): 407 ng/mL | Tmax ([3]; po, 30 mg/kg): 3 h | intracellular HCV RNA levels [4]: selective reductions in intracellular HCV RNA levels | IC50 [5]: < 316 nM | TC90 (toxic concentration decreasing cell viability by 90%) [6]: 28.32 µM | TC95 (toxic concentration decreasing cell viability by 95%) [6]: 41.69 µM | CC50 [7]: 13.2 µM | TC90 (toxic concentration decreasing cell viability by 90%) [8]: 245 µM | TC95 (toxic concentration decreasing cell viability by 95%) [8]: 272 µM | CC50 [9]: 111 µM | CC50 [10]: 66.4 µM | plasma levels (below LLOQ) ([11]; IV 5 mg/kg, from 12 hours to 72 hours post-dose): < 5 ng/mL | plasma levels (below LLOQ) ([11]; PO 30 mg/kg, from 24 hours to 72 hours post-dose): < 5 ng/mL | therapeutic index (TI50 = TC50 / IC50) [12]: greater than 210 | TC90 (toxic concentration decreasing cell viability by 90%) [13]: 63.41 µM | TC95 (toxic concentration decreasing cell viability by 95%) [13]: 84.55 µM | CC50 [14]: 14.1 µM

NC(=O)c1ncn([C@@H]2O[C@H](CO)[C@@H](O)[C@H]2O)n1 [ribavirin, reference compound]
toxicity (significant = greater than 50% depression of the dye uptake levels observed in untreated cells) [2]: Significant toxicity
